Drawing on the supplement of paper PMC10307832, this text covers relative viability for 1 cell line.

Assay in all cases: relative viability (nuclei count vs DMSO), 5 days (fraction); higher = more cells survive
Compound in the experiment “R406 + Decitabine”: COc1cc(Nc2ncc(F)c(Nc3ccc4c(n3)NC(=O)C(C)(C)O4)n2)cc(OC)c1OC [R406] + Nc1ncn([C@H]2C[C@H](O)[C@@H](CO)O2)c(=O)n1 [Decitabine] (partner 2 µM)
The gist of the method: (§1)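 Relative viability divides the nuclei count in treated wells by that in vehicle wells. Lung cancer cell lines were seeded in 1536-well plates, dosed by pin tool the next day, and fixed and stained after 5 days in one step with final 0.05% Triton X-100, 1% formaldehyde and 1 ug/ml Hoechst. Dosing was a single drug or a fixed anchor-drug dose plus five library-drug doses (not always all listed) in √10 steps, and values are medians of duplicate plates imaged at 4×.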

Compound in the experiment “R406 + Pemetrexed”: COc1cc(Nc2ncc(F)c(Nc3ccc4c(n3)NC(=O)C(C)(C)O4)n2)cc(OC)c1OC [R406] + Nc1nc2[nH]cc(CCc3ccc(C(=O)N[C@@H](CCC(=O)O)C(=O)O)cc3)c2c(=O)[nH]1 [Pemetrexed] (partner 0.2 µM)
The gist of the method: as §1

Compound in the experiment “Daporinad + Palbociclib”: O=C(/C=C/c1cccnc1)NCCCCC1CCN(C(=O)c2ccccc2)CC1 [Daporinad] + CC(=O)c1c(C)c2cnc(Nc3ccc(N4CCNCC4)cn3)nc2n(C2CCCC2)c1=O [Palbociclib] (partner 0.5 µM)
An outline of the steps: as §1

Compound in the experiment “Daporinad + Decitabine”: O=C(/C=C/c1cccnc1)NCCCCC1CCN(C(=O)c2ccccc2)CC1 [Daporinad] + Nc1ncn([C@H]2C[C@H](O)[C@@H](CO)O2)c(=O)n1 [Decitabine] (partner 2 µM)
The gist of the method:
as §1

In the case of UMC-11, the relative viability worked out at 0.618 with R406 + Decitabine (first compound 0.08 µM); 0.703 in the experiment with R406 + Decitabine (first compound 0.253 µM); 0.75 with R406 + Decitabine (first compound 0.8 µM); 1.34 in the experiment with R406 + Decitabine (first compound 2.53 µM); 0.312 with R406 + Decitabine (first compound 8 µM); 0.764 in the experiment with R406 + Pemetrexed (first compound 0.08 µM). In addition, the relative viability with R406 + Pemetrexed (first compound 0.253 µM) was found to be 0.808; with R406 + Pemetrexed (first compound 0.8 µM), 0.889; with R406 + Pemetrexed (first compound 2.53 µM) it was 0.609; with R406 + Pemetrexed (first compound 8 µM), 0.304; with Daporinad + Palbociclib (first compound 0.0005 µM), 0.385; in the experiment with Daporinad + Palbociclib (first compound 0.001581 µM), 0.338. In addition, the relative viability was determined as 0.342 with Daporinad + Palbociclib (first compound 0.005 µM); 0.395 with Daporinad + Palbociclib (first compound 0.01581 µM); 0.558 with Daporinad + Decitabine (first compound 0.0005 µM); 0.813 with Daporinad + Decitabine (first compound 0.001581 µM); 0.625 in the experiment with Daporinad + Decitabine (first compound 0.005 µM); 0.54 in the experiment with Daporinad + Decitabine (first compound 0.01581 µM).
